Here are results for five compounds from patent US20230295159A1, “ATX INHIBITOR, AND PREPARATION METHOD THEREFOR AND USE THEREOF” (SUZHOU ARK BIOPHARMACEUTICAL CO., LTD., priority 2020, published 2023).

One data set concerns the target ATX enzyme (Homo sapiens (Human), UniProt Q13822). Nature of the data set: ATX enzyme activity inhibition assay. The conditions noted are these: 16:0-LPC substrate, Amplex UltraRed fluorescence. In kind it is biochemical. As to the method:
The tested compounds were dissolved with dimethyl sulfoxide (DMSO) to prepare 20 mM of stock solutions, the stock solutions were subjected to 4-fold gradient dilutions with DMSO, with the initial concentration of 20 µM and a total of 8 concentration gradients. 20 nL of diluted compound was transferred to a 384-well plate using Echo 550 and 5 µL of ATX enzyme solution formulated with 4 × Tris-HCl reaction buffer to the well, then the 384-well plate was centrifuged at 1000 rpm for 1 min and […] pre-incubated at room temperature for 15 min. Subsequently, 5 µL of 16:0-LPC foumulated with the above 4 × reaction buffer and 10 µL of assay solution containng 2 × Amplex UltraRed reagent, choline oxidase and horseradish peroxidase (HRP) foumulated with the same reaction buffer were added to each well, then the 384-well plate was centrifugated at 1000 rpm for 1 min. The fluorescence signals were read at an excitation wavelength of 530 nm and an emission wavelength of 590 nm by Synergy 2 microplate reader. The inhibition rate of the compound against enzyme reaction was calculated according to the fluorescence intensity ratio, and IC50 of the compound was analysed and calculated by GraphPad Prism 5 software.

Data set [1] is described as follows: Rat pharmacokinetic study. The format is in vivo, SD rat. The following applies: for F: PO 10 mg/kg vs IV 2 mg/kg; for AUC(0-inf) / AUC(0-t) / Cmax / half-life / Tmax: SD, plasma; for half-life: read-out: t½ (converted). The procedure:
SD rat pharmacokinetic study was performed on several compounds in Examples of the present disclosure through a single intravenous injection (IV, at a dose of 2 mg/kg) and a single oral administration (PO, at a dose of 10 mg/kg), and blood samples were taken before administration and 5 min, 15 min, 30 min, 1 h, 2 h, 4 h, 8 h, 12 h and 24 h after administration, respectively, to determine the plasma concentration of the compound for assay. The pharmacokinetic data of control compound and the compounds in Examples 17, 26, 28 and 29 of the present disclosure in rat plasma are shown in Tables 4-8.

A further data set concerns the target hERG potassium channel (Homo sapiens (Human), UniProt Q12809). Nature of the data set: hERG inhibition assay (manual whole-cell patch clamp). The following applies: hERG tail current, stable transfected cell line. In kind it is cell-based. As to the method:
Rapid activation of human delayed rectifier potassium current (IKr) is mainly mediated by hERG ion channel and participates in repolarization of human cardiomyocytes. Blocking this current with drugs will lead to QT interval prolongation syndrome in clinical practice, which will easily induce acute arrhythmia and even sudden death.
Experimental method: a whole-cell patch clamp technique was used to record hERG current. The cell suspension was added to a small petri dish and placed on an inverted microscope stage. After adherence, the cells were perfused with extracellular fluid at a recommended flow rate of 1-2 mL/min. The glass microelectrode was drawn by a microelectrode drawing instrument in two steps, and the resistance thereof after filling the electrode interior liquid was 2-5 MΩ. After the whole-cell recording mode was set up, the clamping potential was maintained at -80 mV. The depolarization voltage was applied to +60 mV for 850 ms, and then repolarized to -50 mV for 1275 ms to induce hERG tail current. Such a set of pulse programming was repeated every 15 seconds throughout the experiment. After the current was stable, the drug was administered by extracellular continuous perfusion from low concentration to high concentration. Starting from low concentration, perfusion continued until the drug effect was stable, then perfusion at the next concentration was performed. In this experiment, the blocking effect on hERG tail current was tested for the test objects at different concentrations and the positive control (N ≥ 2). Then, stimulus generation and signal acquisition were carried out by PatchMaster software; and a signal was amplified with a patch clamp amplifier. FitMaster, EXCEL, Graphpad Prism, SPSS 21.0, etc. were used for further data analysis and curve fitting. In data processing, when determining the blocking effect on hERG, the peak and baseline of tail current were calibrated. The inhibition rate (IR) of tail current was used to express the effect of the compounds at different concentrations.
IR = 100% × (peak of tail current before administration - peak of tail current after administration)/peak of tail current before administration.
IC50 was obtained by fitting the Hill equation (if applicable), if the maximum inhibition rate of the test object at all concentrations was less than 50%, then IC50 was not calculated. [00500]

The target in data set [2] is 3A4 subtype of CYP450 enzyme (Homo sapiens (Human), UniProt P08684). Nature of the data set: 3A4 subtype of CYP450 enzyme time-dependent inhibition assay (IC50 shift). The format is in vitro ADME. The following applies: both IC50 values above top concentration; testosterone substrate; read-out: IC50 against 3A4 subtype (both groups, pre-incubated with and without NADPH). The procedure: (§1) The probe substrate was testosterone at a concentration of 50 µM. The reaction was terminated after incubation for 10 min. The IC50 of the compound against enzyme was calculated by measuring the relative yield of metabolite, and the IC50 shift was calculated from the IC50 results of the groups pre-incubated with and without addition of NADPH.

In data set [3] the test system is Chinese hamster ovary cells (CHO-WBL). Kind of data set: In vitro micronucleus assay with Chinese hamster ovary cells. The procedure:
In the major micronucleus assay, CHO-WBL cells were exposed to at least 3 concentrations of the test object, while vehicle control group and positive control group were set up, with 2 replicated wells for each dose group. In inactivated test system, the administration lasted for 3 and 24 hours, and in S9 activated test system, the exposure to the test object lasted for 3 hours.
When choosing the highest dose for micronucleus frequency assay, the cytotoxicity of dose group of the test object should not substantially exceed 50% of that of the corresponding vehicle control group.
On the premise that the test is valid, the test results are evaluated according to the following criteria:
If the test object simutaneously meets the following criteria, it can be considered as positive:
A significant increase in micronucleus frequency is observed in one or more concentration groups.
If none of the above three points is met, the test object can be considered as negative.

The target in the next data set is CYP3A4 (Homo sapiens (Human), UniProt P08684). Kind of data set: 3A4 subtype of CYP450 enzyme time-dependent inhibition assay (IC50 shift). In kind it is in vitro ADME. The conditions noted are these: probe testosterone, 50 µM; 30 min pre-incubation with vs without NADPH, testosterone substrate, human liver microsomes. The procedure:
as §1
On the technique in general: Microsomes from liver hold many membrane-bound enzymes, among them those of drug oxidation.

Like-named read-outs stand apart in the source and are kept apart here.

Chain of hERG potassium channel (Q12809 whole entry): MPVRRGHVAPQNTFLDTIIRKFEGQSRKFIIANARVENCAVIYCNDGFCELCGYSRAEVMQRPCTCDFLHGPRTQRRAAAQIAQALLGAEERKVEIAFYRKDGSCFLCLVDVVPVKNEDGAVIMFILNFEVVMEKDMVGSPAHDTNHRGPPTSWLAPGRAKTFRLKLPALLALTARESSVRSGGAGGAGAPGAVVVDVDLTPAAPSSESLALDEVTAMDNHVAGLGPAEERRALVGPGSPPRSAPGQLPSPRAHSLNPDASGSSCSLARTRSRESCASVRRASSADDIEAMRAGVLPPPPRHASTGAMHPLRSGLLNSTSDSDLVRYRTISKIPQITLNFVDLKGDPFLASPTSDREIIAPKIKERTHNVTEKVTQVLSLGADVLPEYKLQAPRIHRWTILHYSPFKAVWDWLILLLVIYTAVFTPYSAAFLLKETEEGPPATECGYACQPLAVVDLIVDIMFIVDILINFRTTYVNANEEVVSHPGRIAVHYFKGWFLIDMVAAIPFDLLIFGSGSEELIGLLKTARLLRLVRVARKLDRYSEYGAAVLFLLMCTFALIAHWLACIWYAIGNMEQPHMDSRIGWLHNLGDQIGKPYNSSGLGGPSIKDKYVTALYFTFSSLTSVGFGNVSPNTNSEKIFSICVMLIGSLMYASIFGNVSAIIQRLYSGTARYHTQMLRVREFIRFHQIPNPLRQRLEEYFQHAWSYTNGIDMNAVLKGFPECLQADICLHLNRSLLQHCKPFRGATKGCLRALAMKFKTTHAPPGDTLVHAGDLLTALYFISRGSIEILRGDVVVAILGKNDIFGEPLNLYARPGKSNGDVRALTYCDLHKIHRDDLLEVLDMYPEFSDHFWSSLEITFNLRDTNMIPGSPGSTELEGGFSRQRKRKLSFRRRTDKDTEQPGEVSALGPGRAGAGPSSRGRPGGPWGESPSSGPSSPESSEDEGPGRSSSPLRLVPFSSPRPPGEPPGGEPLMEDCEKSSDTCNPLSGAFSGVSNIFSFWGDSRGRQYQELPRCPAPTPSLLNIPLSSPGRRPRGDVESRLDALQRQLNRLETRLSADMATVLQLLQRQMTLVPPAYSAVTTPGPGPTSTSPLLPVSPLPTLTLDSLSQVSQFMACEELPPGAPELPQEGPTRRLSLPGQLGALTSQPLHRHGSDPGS
Chain of 3A4 subtype of CYP450 enzyme (P08684 whole entry): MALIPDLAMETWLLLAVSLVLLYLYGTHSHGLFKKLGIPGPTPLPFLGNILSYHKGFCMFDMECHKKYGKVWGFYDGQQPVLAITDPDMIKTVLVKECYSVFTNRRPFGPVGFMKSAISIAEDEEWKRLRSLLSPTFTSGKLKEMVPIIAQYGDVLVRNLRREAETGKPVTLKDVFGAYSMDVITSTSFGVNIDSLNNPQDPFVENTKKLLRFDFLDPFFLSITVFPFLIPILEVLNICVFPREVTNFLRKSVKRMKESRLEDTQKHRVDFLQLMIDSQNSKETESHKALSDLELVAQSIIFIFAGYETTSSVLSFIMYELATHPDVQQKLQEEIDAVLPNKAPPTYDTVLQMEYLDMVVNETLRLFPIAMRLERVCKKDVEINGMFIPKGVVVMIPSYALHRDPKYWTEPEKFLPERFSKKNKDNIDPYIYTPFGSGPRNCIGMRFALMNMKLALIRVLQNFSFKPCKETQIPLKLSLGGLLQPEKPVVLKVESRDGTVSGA
Chain of CYP3A4 (P08684 whole entry): as above

`CCN(c1nc(-c2ccc(F)cc2)c(C#N)s1)c1c2nc(-c3cnc(N4CCCS4(=O)=O)nc3)ccc2nn1CC` [Example 17, 2-((5-(2-(1,1-dioxidoisothiazolidin-2-yl)pyrimidin-5-yl)-2-ethyl-2H-pyrazolo[4,3-b]pyridin-3-yl)(ethyl)amino)-4-(4-fluorophenyl)thiazole-5-carbonitrile]: the IC50 on ATX enzyme worked out at 7.4 nM. Also, in data set [1] (IV 2 mg/kg), the Cl_F_pred is 7.17 mL/min/kg, the AUC(0-inf) amounted to 4720 ng·h/mL, the AUC(0-t) turned out to be 4680 ng·h/mL and the Cmax turned out to be 2540 ng/mL. The half-life in data set [1] (IV 2 mg/kg) was 4 h. In data set [1] (PO 10 mg/kg), this compound returned a Cl_F_pred of 18.2 mL/min/kg, an AUC(0-inf) of 9180 ng·h/mL, an AUC(0-t) of 9030 ng·h/mL and a Cmax of 1030 ng/mL. In addition, in data set [1] (PO 10 mg/kg), the Tmax came out at 4 h and the half-life is 3.7 h. Moreover, in data set [1], the F was 38.5%. At hERG potassium channel, the IC50 is over 30000 nM. The IC50 in data set [2] is over 100000 nM.

Consider `CCN(c1nc(-c2ccc(F)cc2)c(C#N)s1)c1c2nc(-c3cnc(N4CC(O)C4)nc3)ccc2nn1CC` [Example 23, 2-(ethyl(2-ethyl-5-(2-(3-hydroxyazetidin-1-yl)pyrimidin-5-yl)-2H-pyrazolo[4,3-b]pyridin-3-yl)amino)-4-(4-fluorophenyl)thiazole-5-carbonitrile], for which the IC50 on ATX enzyme is 11 nM; in data set [2], over 100000 nM.

Take `CCN(c1nc(-c2ccc(F)cc2)c(C#N)s1)c1c2nc(-c3cnc(N4CCC(O)CC4)nc3)ccc2nn1CC` [Example 26, 2-(ethyl(2-ethyl-5-(2-(4-hydroxypiperidin-1-yl)pyrimidin-5-yl)-2H-pyrazolo[4,3-b]pyridin-3-yl)amino)-4-(4-fluorophenyl)thiazole-5-carbonitrile]: the results for the IC50 on ATX enzyme and against hERG potassium channel were 5.5 nM and over 30000 nM, respectively. The Cl_F_pred worked out at 4.17 mL/min/kg in data set [1] (IV 2 mg/kg) and 25 mL/min/kg in data set [1] (PO 10 mg/kg). This compound also returned a F in data set [1] of 16.6%. In addition, the AUC(0-inf) in data set [1] (IV 2 mg/kg) is 8170 ng·h/mL; in data set [1] (PO 10 mg/kg) it was 6720 ng·h/mL. Besides, the figures for the AUC(0-t) in data set [1] (IV 2 mg/kg) and in data set [1] (PO 10 mg/kg) were 7500 ng·h/mL and 6230 ng·h/mL, respectively. In addition, the highest concentration (Cmax) in data set [1] (IV 2 mg/kg) came out at 3070 ng/mL; in data set [1] (PO 10 mg/kg), 663 ng/mL. Further, the half-life is 9.3 h in data set [1] (IV 2 mg/kg) and 5.8 h in data set [1] (PO 10 mg/kg). Also, the Tmax in data set [1] (PO 10 mg/kg) is 4 h. The “% binuclear cells containing micronucleus” value is recorded as 1.65% in data set [3] (3-hour administration with metabolic activation, 3 µg/ml); 1.65% in data set [3] (3-hour administration with metabolic activation, 6 µg/ml); 1.75% in data set [3] (3-hour administration with metabolic activation, 12 µg/ml); 1.60% in data set [3] (3-hour administration with metabolic activation, 20 µg/ml); 1.85% in data set [3] (3-hour administration without metabolic activation, 3 µg/ml); 1.80% in data set [3] (3-hour administration without metabolic activation, 6 µg/ml). Moreover, the “% binuclear cells containing micronucleus” value in data set [3] (3-hour administration without metabolic activation, 12 µg/ml) is listed as 1.70%; in data set [3] (3-hour administration without metabolic activation, 25 µg/ml), 1.50%; in data set [3] (24-hour administration without metabolic activation, 1 µg/ml), 1.90%; in data set [3] (24-hour administration without metabolic activation, 3 µg/ml), 1.65%; in data set [3] (24-hour administration without metabolic activation, 6 µg/ml), 1.85%; in data set [3] (24-hour administration without metabolic activation, 9 µg/ml), 1.80%. Moreover, in data set [3] (overall verdict over all administration series), the “potential to induce micronucleus formation in CHO-WBL cells” value is on record as “negative”. For the same compound, the IC50 shift at 10 min at CYP3A4 came out at 1.09.

As for `CCN(c1nc(-c2ccc(F)cc2)c(C#N)s1)c1c2nc(-c3cnc(N4CC[C@H](O)C4)nc3)ccc2nn1CC` [Example 27, (S)-2-(ethyl(2-ethyl-5-(2-(3-hydroxypyrrolidin-1-yl)pyrimidin-5-yl)-2H-pyrazolo[4,3-b]pyridin-3-yl)amino)-4-(4-fluorophenyl)thiazole-5-carbonitrile], the IC50 on ATX enzyme was 4.6 nM; on hERG potassium channel, over 30000 nM. At CYP3A4, the IC50 shift at 10 min was found to be 0.63.

Turning to `CCN(c1nc(-c2ccc(F)cc2)c(C#N)s1)c1c2nc(-c3cnc(N4CCOCC4)nc3)ccc2nn1CC` [Example 29, 2-(ethyl(2-ethyl-5-(2-morpholinopyrimidin-5-yl)-2H-pyrazolo[4,3-b]pyridin-3-yl)amino)-4-(4-fluorophenyl)thiazole-5-carbonitrile], the IC50 on ATX enzyme turned out to be 23 nM. Besides, in data set [1] (IV 2 mg/kg), the Cl_F_pred amounted to 4.83 mL/min/kg, the AUC(0-inf) stood at 7220 ng·h/mL, the AUC(0-t) was found to be 6840 ng·h/mL and the highest level (Cmax) was 3480 ng/mL. The half-life in data set [1] (IV 2 mg/kg) is 8.2 h. In data set [1] (PO 10 mg/kg), this compound registered a Cl_F_pred of 18.3 mL/min/kg, an AUC(0-inf) of 9150 ng·h/mL, an AUC(0-t) of 7780 ng·h/mL and a Cmax of 847 ng/mL. For the same compound, in data set [1] (PO 10 mg/kg), the Tmax came to 3.3 h and the half-life is 9.2 h. In data set [1], this compound came in with an F of 11.2%. The same compound yielded a half-inhibitory concentration (IC50) against hERG potassium channel of over 30000 nM. Further, in data set [2], the IC50 is over 100000 nM.

As usually defined, the IC50 is the point on the concentration scale where inhibition reaches its midpoint. One may read the AUC(0-inf) as the area under the concentration-time curve extrapolated to infinity. A higher AUC(0-inf) goes with more exposure. By AUC(0-t) is commonly meant exposure summed from dosing to a finite time, without extrapolation to infinity. Read a low AUC(0-t) as low exposure. Broadly, the Cmax is the peak of the concentration-time curve. A word on the Tmax: it is the time at which the peak concentration occurs.
